Key:
[1] = target: T1, pCOD (putative CO dehydrogenase; CoxSLM complex) (Rubrivivax gelatinosus, UniProt I0HW74+I0HW75); assay: in-gel NBT reductase activity, native PAGE of soluble fraction, no riboflavin; format: biochemical; settings: NBT 2 mg/mL; 50 mM Tris-HCl pH 7.6; room temperature, dark; no electron donor added; reduction may run through superoxide
T1 construct: gene coxL; native complex in soluble fraction, native PAGE band between 130 and 250 kDa; predicted 126 kDa (CoxL 84, CoxM 27, CoxS 17 kDa); band absent in coxL mutant; with Carbon monoxide dehydrogenase large chain; Carbon monoxide dehydrogenase small chain
T1 sequence (I0HW74 1-781): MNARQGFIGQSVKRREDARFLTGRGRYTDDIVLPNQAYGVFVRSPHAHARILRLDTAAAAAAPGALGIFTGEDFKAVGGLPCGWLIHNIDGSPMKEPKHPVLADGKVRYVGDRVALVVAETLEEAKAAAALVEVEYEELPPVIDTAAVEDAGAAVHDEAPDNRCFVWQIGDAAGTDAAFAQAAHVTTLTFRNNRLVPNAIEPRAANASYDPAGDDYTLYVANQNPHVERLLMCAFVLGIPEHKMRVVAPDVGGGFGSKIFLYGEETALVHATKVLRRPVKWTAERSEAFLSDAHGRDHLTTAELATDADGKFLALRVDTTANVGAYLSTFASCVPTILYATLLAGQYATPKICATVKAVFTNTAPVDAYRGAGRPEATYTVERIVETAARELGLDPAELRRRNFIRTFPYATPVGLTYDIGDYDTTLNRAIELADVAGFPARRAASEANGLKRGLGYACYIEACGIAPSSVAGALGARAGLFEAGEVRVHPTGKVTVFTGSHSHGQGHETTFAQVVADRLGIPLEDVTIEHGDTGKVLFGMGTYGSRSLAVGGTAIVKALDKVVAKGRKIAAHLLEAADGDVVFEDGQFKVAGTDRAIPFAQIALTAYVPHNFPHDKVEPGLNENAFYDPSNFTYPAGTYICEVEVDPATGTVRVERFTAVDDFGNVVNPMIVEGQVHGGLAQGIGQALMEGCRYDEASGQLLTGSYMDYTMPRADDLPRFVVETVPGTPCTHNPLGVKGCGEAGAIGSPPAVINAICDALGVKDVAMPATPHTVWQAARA
T1 sequence (I0HW75 1-265): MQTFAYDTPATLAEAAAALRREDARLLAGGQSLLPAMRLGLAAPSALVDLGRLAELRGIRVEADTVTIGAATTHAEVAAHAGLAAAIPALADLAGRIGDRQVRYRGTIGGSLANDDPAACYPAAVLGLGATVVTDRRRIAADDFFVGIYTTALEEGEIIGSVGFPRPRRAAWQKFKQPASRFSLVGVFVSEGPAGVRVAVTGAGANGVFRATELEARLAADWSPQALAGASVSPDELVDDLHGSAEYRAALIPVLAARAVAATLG
T1 sequence (I0HW73 1-155 partner): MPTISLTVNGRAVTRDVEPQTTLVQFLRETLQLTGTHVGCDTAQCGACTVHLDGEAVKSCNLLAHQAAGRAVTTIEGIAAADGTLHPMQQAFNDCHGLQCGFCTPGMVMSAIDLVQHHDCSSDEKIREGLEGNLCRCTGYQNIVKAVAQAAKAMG

[2] = target: T2, XDH (xanthine dehydrogenase) of R. gelatinosus (Rubrivivax gelatinosus, UniProt I0HWE5); assay: in-gel NBT reductase activity, native PAGE of soluble fraction; format: biochemical; settings: NBT 2 mg/mL as electron acceptor; 50 mM Tris-HCl pH 7.6; room temperature
T2 construct: gene xdhB; native complex of about 250 kDa in soluble fraction, native PAGE band; XdhB 82 kDa, XdhA 54 kDa, XdhC 27 kDa; band absent in xdhB mutant; with Xanthine dehydrogenase, FAD and iron-sulfur subunit XdhA; Xanthine dehydrogenase subunit or accessory protein XdhC
T2 sequence (I0HWE5 1-778): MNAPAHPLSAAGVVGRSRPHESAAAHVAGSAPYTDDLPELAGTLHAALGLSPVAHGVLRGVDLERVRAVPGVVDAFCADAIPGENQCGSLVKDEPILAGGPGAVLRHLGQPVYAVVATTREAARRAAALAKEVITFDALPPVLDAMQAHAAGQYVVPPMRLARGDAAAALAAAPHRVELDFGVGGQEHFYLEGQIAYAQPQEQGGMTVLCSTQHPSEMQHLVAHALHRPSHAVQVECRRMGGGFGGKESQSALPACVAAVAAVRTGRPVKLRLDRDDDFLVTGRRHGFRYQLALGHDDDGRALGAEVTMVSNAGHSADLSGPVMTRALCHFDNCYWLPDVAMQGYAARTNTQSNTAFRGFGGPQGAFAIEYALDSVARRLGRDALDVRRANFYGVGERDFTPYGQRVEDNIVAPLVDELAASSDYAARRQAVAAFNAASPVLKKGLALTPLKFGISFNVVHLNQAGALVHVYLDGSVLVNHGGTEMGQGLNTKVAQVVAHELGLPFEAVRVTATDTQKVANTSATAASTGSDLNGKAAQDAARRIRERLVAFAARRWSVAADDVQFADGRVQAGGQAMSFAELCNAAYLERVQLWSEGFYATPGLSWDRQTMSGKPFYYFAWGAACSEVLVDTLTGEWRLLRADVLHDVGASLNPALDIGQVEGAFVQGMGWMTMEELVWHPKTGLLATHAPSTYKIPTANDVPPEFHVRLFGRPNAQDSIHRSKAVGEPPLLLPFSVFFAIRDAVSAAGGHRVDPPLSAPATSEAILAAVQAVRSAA
T2 sequence (I0HWE6 1-493 partner): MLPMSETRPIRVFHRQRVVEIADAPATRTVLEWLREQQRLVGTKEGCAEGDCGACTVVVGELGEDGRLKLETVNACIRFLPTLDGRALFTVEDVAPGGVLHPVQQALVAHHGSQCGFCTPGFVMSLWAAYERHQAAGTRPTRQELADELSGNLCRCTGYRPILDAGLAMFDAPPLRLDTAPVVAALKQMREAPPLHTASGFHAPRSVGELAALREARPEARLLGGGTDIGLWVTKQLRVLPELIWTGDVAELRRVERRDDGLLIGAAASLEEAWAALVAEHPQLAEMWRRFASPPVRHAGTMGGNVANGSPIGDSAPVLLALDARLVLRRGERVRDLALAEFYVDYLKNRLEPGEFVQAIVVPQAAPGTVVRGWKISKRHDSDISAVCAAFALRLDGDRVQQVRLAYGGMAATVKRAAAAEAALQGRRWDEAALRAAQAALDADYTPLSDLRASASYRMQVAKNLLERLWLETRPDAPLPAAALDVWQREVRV

Row | Structure (SMILES) | in-gel NBT reductase activity, native PAGE of soluble fraction, no riboflavin [1] | in-gel NBT reductase activity, native PAGE of soluble fraction [2]
1 | COc1cc(-c2ccc(-n3nc(-c4ccccc4)n[n+]3-c3ccc([N+](=O)[O-])cc3)c(OC)c2)ccc1-n1nc(-c2ccccc2)n[n+]1-c1ccc([N+](=O)[O-])cc1 [nitroblue tetrazolium] | able to reduce NBT to NBT-formazan in the absence of riboflavin | –
2 | O=c1[nH]c(=O)c2[nH]cnc2[nH]1 [xanthine] | – | the addition of xanthine to the native PAGE gel revealed a second active band

From paper PMC10434068, “Discriminating Susceptibility of Xanthine Oxidoreductase Family to Metals” (Microbiology Spectrum, 2023)
